Results reported in paper PMC11173382, “In Vitro Investigations into the Potential Drug Interactions of Pseudoginsenoside DQ Mediated by Cytochrome P450 and Human Drug Transporters” (Molecules, 2024).

Molecular target: T1, hBCRP (Homo sapiens, UniProt Q9UNQ0)
T1 construct: purchased GenoMembrane DNAIG03; host or cells: Sf9 insect cell membrane vesicles
T1 sequence (Q9UNQ0 1-655): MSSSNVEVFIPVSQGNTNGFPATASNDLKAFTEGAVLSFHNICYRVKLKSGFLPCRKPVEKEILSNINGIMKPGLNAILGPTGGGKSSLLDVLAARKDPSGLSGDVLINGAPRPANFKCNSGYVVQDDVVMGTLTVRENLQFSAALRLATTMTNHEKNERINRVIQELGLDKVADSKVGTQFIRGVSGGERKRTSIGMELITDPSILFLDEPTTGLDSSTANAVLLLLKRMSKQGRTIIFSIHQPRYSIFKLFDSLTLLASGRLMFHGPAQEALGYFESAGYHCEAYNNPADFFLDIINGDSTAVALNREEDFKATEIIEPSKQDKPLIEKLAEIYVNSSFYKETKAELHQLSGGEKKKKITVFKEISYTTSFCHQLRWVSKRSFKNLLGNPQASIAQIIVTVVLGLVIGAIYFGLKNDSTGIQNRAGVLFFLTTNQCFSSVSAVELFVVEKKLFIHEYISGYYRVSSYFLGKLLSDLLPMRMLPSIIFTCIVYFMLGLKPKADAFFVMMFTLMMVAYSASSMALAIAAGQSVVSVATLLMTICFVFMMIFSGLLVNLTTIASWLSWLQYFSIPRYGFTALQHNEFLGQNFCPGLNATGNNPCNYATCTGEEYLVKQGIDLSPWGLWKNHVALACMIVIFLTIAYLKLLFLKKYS
Test: Vesicular transport assay with sf9-BCRP vesicles (3H-ES)
Format: in vitro ADME
Conditions: for Transport activity of BCRP (main text: percentage inhibition): negative control = 100%
From the text: Drug transporters mediate the cellular uptake and efflux of their substrates. Therefore, cell lines overexpressing a drug transporter can be utilized to investigate inhibitors of the transporter by assessing changes in substrate uptake. For each drug transporter, we selected a well-characterized inhibitor as the positive control. Radiolabeled substrates were used to indicate the decrease in transport efficiency when the drug transporters were inhibited by PDQ or the control inhibitors.
The concentrations of the control drugs and the substrates were stated in the assay details. Working solutions of the control inhibitors, the radiolabeled substrates, and each dose of PDQ were prepared at 200 times (200×) more concentrated solutions with DMSO for further dilution.
Transporter-overexpressed cell lines. Human organic anion transporter-overexpressed cell lines MDCKII-OAT1 and S2-OAT3, human organic anion transport polypeptide-overexpressed cell lines HEK293A-OATP1B1 and HEK293A-OATP1B3, human organic cation transporter 2-overexpressed cell line S2-OCT2, and human multi-drug resistance protein MDR1 (or P-gp)-overexpressed cell line MDCKII-MDR1 were gifts from Japan Fuji Biomedical Co., Ltd. (Fuji, Shizuoka Prefecture, Japan). Breast cancer resistance protein-overexpressed vesicles (sf9-BCRP vesicle) were purchased from GenoMembrane Co., Ltd. (Yokohama, Kanagawa, Japan).
Vesicular transport assay with the sf9-BCRP model. Vesicular transport assay was conducted to measure the interaction between PDQ and the efflux transporter BCRP, using sf9-BCRP vesicles (Cat. No, DNAIG03, GenoMembrane, Yokohama, Kanagawa, Japan). The modulation of ^3H-ES transport reflects the level of the drug-transporter interaction.
The MgATP working solution was prepared by diluting the 200 mM stock solution with the transport buffer, while the reduced glutathione solution was made by dissolving glutathione (0.615 g) in 8 mL deionized water and adjusting the pH to 6.8 with 2M NaOH. The drug solution in the reaction mix was replaced with […] of transport buffer as the negative control mix. These reaction mixes were pre-incubated at 37 °C before use. All reagents were thawed on ice, and deionized water was used for the preparation.
The membrane suspension was gently mixed with ice-cold transport buffer and aliquoted to 1.5 mL centrifuge tubes on ice. Each tube contained […] of vesicles ([…] BCRP) and […] of transport buffer. The vesicle-containing tubes were pre-incubated at 37 °C for 5 min. Then, the reaction mixes were added to the tubes to initiate the assay. To terminate the reaction after 5 min, […] of washing buffer (40 mM MOPS-Tris and 70 mM KCl) was added to each tube on ice. The samples were then transferred to the filter and filtered. The filters were washed with 5 mL of cold washing buffer three times. Subsequently, the filters were placed at the bottom of the counting vials, and the scintillation cocktail was added. The filter and the cocktail were vigorously vortexed to mix. The remaining radiation in the samples was then measured with the scintillation counter. Each sample was replicated three times (N = 3).
In = [100 × (U − U0)/(Uc − U0)]%(3)
The results were expressed as mean ± standard deviation (SD) and analyzed with GraphPad Prism 8.0 software (CA, USA). The IC50 of PDQ was curve-fitted with the FORECAST function. Statistical significance was calculated using a two-tailed test, and a p value < 0.05 was considered as significant.

Compound: CC(C)(O)[C@@H]1CC[C@@](C)([C@H]2CC[C@]3(C)[C@@H]2[C@H](O)C[C@@H]2[C@@]4(C)CC[C@H](O)C(C)(C)[C@@H]4CC[C@]23C)O1 [PDQ, (20S,24S)-dammar-20,24-epoxy-3β, 12β, 25-triol]
- DPM (3H-ES transport by BCRP) (inhibitor 0.1 μM): 5303.7±176.6 DPM
- Transport activity of BCRP (main text: percentage inhibition) (inhibitor 0.1 μM): 96.1±3.2%
- DPM (3H-ES transport by BCRP) (inhibitor 0.3 μM): 2995.3±288.8 DPM
- Transport activity of BCRP (main text: percentage inhibition) (inhibitor 0.3 μM): 54.3±5.2%
- DPM (3H-ES transport by BCRP) (inhibitor 1 μM): 2788.3±479.5 DPM
- Transport activity of BCRP (main text: percentage inhibition) (inhibitor 1 μM): 50.5±8.7%
- DPM (3H-ES transport by BCRP) (inhibitor 3 μM): 2352.7±355.1 DPM
- Transport activity of BCRP (main text: percentage inhibition) (inhibitor 3 μM): 42.7±6.4%
- DPM (3H-ES transport by BCRP) (inhibitor 10 μM): 1997.3±185.1 DPM
- Transport activity of BCRP (main text: percentage inhibition) (inhibitor 10 μM): 36.2±3.4%
- DPM (3H-ES transport by BCRP) (inhibitor 30 μM): 1911.0±179.5 DPM
- IC50 (sf9-BCRP vesicles, 3H-ES 1 µM, 5 min): 1080 nM
